Source: patent US9266830B2, “Pesticidal arylpyrrolidines” (Bayer Intellectual Property GmbH, priority 2007, dated 2016)

Key:
Format in all cases: in vivo
Lucilia cuprina larvae = assay: Lucilia cuprina test (larvae in minced horse meat); details: application rate 100 ppm, larvae, after 2 days
Procedure: (§1) Solvent: dimethyl sulfoxide
To produce a suitable preparation of active compound, 10 mg of active compound are dissolved in 0.5 ml solvent, and the concentrate is diluted with water to the desired concentration. Approximately 20-30 (Lucilia cuprina larvae) are transferred into a test tube containing 1 cm^3 of minced horse meat and 0.5 ml aqueous dilution of test compound. After 2 days mortality in % is determined 100% means that all the larvae have been killed; 0% means that none of the larvae have been killed.

Boophilus microplus = Boophilus microplus test (injection); details: application rate 20 μg/animal, adult engorged females, after 7 days
Procedure: as §1
To produce a suitable preparation of active compound, 10 mg of active compound are dissolved in 0.5 ml solvent, and the concentrate is diluted with solvent to the desired concentration. Five adult engorged female ticks (Boophilus microplus) are injected with compound solution into the abdomen. Ticks are transferred into replica plates and incubated in a climate chamber for a period of time. Egg deposition of fertile eggs is monitored. After 7 days mortality in % is determined 100% means that all eggs are infertile; 0% means that all eggs are fertile.

Amblyomma hebraeum = Amblyomma hebraeum test (AMBYHE), nymph immersion; details: application rate 100 ppm, nymphs, after 42 days
Procedure: as §1
To produce a suitable preparation of active compound, 10 mg of active compound are dissolved in 0.5 ml solvent, and the concentrate is diluted with water to the desired concentration. Nymphs of the tick Amblyomma hebraeum are placed in perforated plastic beakers and immersed in aqueous compound solution for one minute. Ticks are transferred to a filter paper in a Petri dish and incubated in a climate chamber for 42 days.
After 42 days mortality in % is determined 100% means that all the ticks have been killed; 0% means that none of the ticks have been killed.

SMILES | activity (mortality in %) (Lucilia cuprina larvae) [%] | activity (100% means that all eggs are infertile) (Boophilus microplus) [%] | activity (mortality in %) (Amblyomma hebraeum) [%]
O=C(NCc1ccccn1)c1sc(N2CCC(c3cc(Cl)cc(Cl)c3)(C(F)(F)F)C2)nc1C(F)(F)F (stereo not shown) [4-9] | 80 | – | –
O=C(NCc1ccc(N2CCC(c3cc(C(F)(F)F)cc(C(F)(F)F)c3)(C(F)(F)F)C2)cc1Br)C1CC1 (stereo not shown) [1-313] | – | 100 | 95
NCc1ccc(N2CCC(c3cc(Cl)c(Cl)c(Cl)c3)(C(F)(F)F)C2)cc1Cl (stereo not shown) [1-336] | 90 | 100 | –
O=C(CC(F)(F)F)NCc1ccc(N2CCC(c3cc(Cl)c(Cl)c(Cl)c3)(C(F)(F)F)C2)cc1Br (stereo not shown) [1-347] | – | 100 | 90
COCCNC(=O)NCc1ccc(N2CCC(c3cc(Cl)cc(Cl)c3)(C(F)(F)F)C2)cc1Cl (stereo not shown) [1-97] | 90 | 100 | –
Cc1nc(N2CCC(c3cc(Cl)cc(Cl)c3)(C(F)(F)F)C2)ncc1C(=O)NCC(F)(F)F (stereo not shown) [2-69] | 90 | 100 | –
O=C(CC(F)(F)F)NCc1ccc(N2CCC(c3cc(Cl)c(Cl)c(Cl)c3)(C(F)(F)F)C2)cc1Cl (stereo not shown) [1-340] | – | 100 | 80
C=CCS(=O)(=O)CC(=O)NCc1ccc(N2CCC(c3cc(Cl)c(Cl)c(Cl)c3)(C(F)(F)F)C2)cc1C(F)(F)F (stereo not shown) [1-734] | – | 100 | 90
CCC(=O)NCc1ccc(N2CCC(c3cc(C(F)(F)F)cc(C(F)(F)F)c3)(C(F)(F)F)C2)cc1Cl (stereo not shown) [1-307] | – | 100 | 80
C=CCNC(=O)NCc1ccc(N2CCC(c3cc(Cl)cc(Cl)c3)(C(F)(F)F)C2)cc1C(F)(F)F (stereo not shown) [1-230] | – | 100 | 80
COCCNC(=O)NCc1ccc(N2CCC(c3cc(Cl)cc(Cl)c3)(C(F)(F)F)C2)cc1C(F)(F)F (stereo not shown) [1-243] | 95 | 100 | –
O=C(NCc1ccc(N2CCC(c3cc(Cl)cc(Cl)c3)(C(F)(F)F)C2)cc1C(F)(F)F)N1CCOCC1 (stereo not shown) [1-257] | 95 | 100 | –
O=C(CCCl)NCc1ccc(N2CCC(c3cc(C(F)(F)F)cc(C(F)(F)F)c3)(C(F)(F)F)C2)cc1C(F)(F)F (stereo not shown) [1-297] | – | 100 | 90
O=S(=O)(CC(F)(F)F)NCc1ccc(N2CCC(c3cc(Cl)c(Cl)c(Cl)c3)(C(F)(F)F)C2)cc1C(F)(F)F (stereo not shown) [1-334] | 90 | 100 | –
CSCCC(=O)NCc1ccc(N2CCC(c3cc(Cl)cc(Cl)c3)(C(F)(F)F)C2)cc1C(F)(F)F (stereo not shown) [1-509] | – | 100 | 90
CCCNC(=O)NCc1ccc(N2CCC(c3cc(Cl)cc(Cl)c3)(C(F)(F)F)C2)cc1Cl (stereo not shown) [1-79] | 90 | 100 | –
CSCCNC(=O)NCc1ccc(N2CCC(c3cc(Cl)cc(Cl)c3)(C(F)(F)F)C2)cc1C(F)(F)F (stereo not shown) [1-244] | 80 | 100 | –
CC(C)(C)OC(=O)NCc1ccc(N2CCC(c3cc(Cl)c(Cl)c(Cl)c3)(C(F)(F)F)C2)cc1Cl (stereo not shown) [1-694] | 80 | 100 | –
O=C(CC(F)(F)F)NCc1ccc(N2CCC(c3cc(C(F)(F)F)cc(C(F)(F)F)c3)(C(F)(F)F)C2)nc1C(F)(F)F (stereo not shown) [1-404] | – | 100 | 85
CN(C)C(=O)NCc1ccc(N2CCC(c3cc(Cl)cc(Cl)c3)(C(F)(F)F)C2)cc1Cl (stereo not shown) [1-118] | – | 100 | 90
NCc1ccc(N2CCC(c3cc(C(F)(F)F)cc(C(F)(F)F)c3)(C(F)(F)F)C2)cc1Cl (stereo not shown) [1-306] | 90 | – | –
